In patent US8415344B2, “Method of treating depression” (Brookhaven Science Associates, LLC, priority 2009, dated 2013):

Key:
[1] = test system: astrocyte glutamate transporters; conditions: Sun et al.; cited from earlier work
[2] = test system: rats exhibiting learned helplessness (cLH rat line); assay: Learned helplessness testing (lever-press escape paradigm) of cLH rats pre- and post-treatment; assay type: in vivo; conditions: oral diazoxide dissolved in NaOH, 10, 30 or 60 mg per day, three days
Procedure: At the age of 9 weeks, male rats are tested for learned helplessness. Testing consists of an escape paradigm, were 0.8 mA, 60 sec foot-shocks can be interrupted with a lever press. A trial not terminated within 20 seconds is considered a failure, and 10 or more failed trials out of 15 trials are treated as “helpless” phenotype. cNLH animals are exposed to a total of 20 unpredictable, unescapable foot-shocks (0.8 mA, 60 sec) 24 hours prior to testing. Five rats from the cLH rat line described in Example I are provided with orally administered diazoxide dissolved in NaOH over a period of three days. Two animals received 60 mg per day two received 30 mg, and one received 10 mg. Three rats in the control group received no treatment.

[3] = Rothstein et al.; Lipski et al.; cited from earlier work

Row | Structure (SMILES) | stimulating the uptake of glutamate by astrocyte glutamate transporters [1] | number of lever presses post-treatment relative to pre-treatment [2] | effectiveness in studies of neuroprotection [3]
1 | CC(C)NC(C)(C)C(C)C [iptakalim] | shown to be effective | – | –
2 | CC1=NS(=O)(=O)c2cc(Cl)ccc2N1 [diazoxide] | shown to be effective | substantial increase in the number of lever presses | –
3 | CO/N=C(\C(=O)N[C@@H]1C(=O)N2C(C(=O)O)=C(CSc3nc(=O)c(=O)[nH]n3C)CS[C@H]12)c1csc(N)n1 [Ceftriaxone] | – | – | particularly effective
4 | CC(N/C(=N\C#N)Nc1ccncc1)C(C)(C)C (centres unmarked) [pinacidil] | shown to be effective | – | –
